Experimental data reported in US9499550B2 (BRISTOL-MYERS SQUIBB COMPANY, priority 2012, dated 2016).
Read-outs that look alike come from different tables or passages of the source.

Assays:
[1] = system: HCV genotype 1a (H77 strain) replicon in HUH-7 cells; assay: HCV replicon luciferase reporter assay, genotype 1a; assay type: cell-based; conditions: Hepatitis C virus, Huh-7, 72 h, HCV genotype 1a replicon luciferase, 3 days incubation
Outline: (§1)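 Replicon inhibition for both genotypes was measured as Renilla luciferase signal (EnduRen, 7.5 μM final, 2 h) after 3-day, 37° C exposure of replicon-bearing HUH-7 cells in 4% FCS DMEM, 0.5% DMSO. The 1b construct carries S1179I; the 1a H77 construct carries P1496L and S2204I. Twenty-point, 3-fold dilutions were fitted four-parametrically for EC50, and CC50 was taken from multiplexed Cell Titer-Blue.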

[2] = system: HCV genotype 1b (Con1) replicon in HUH-7 cells; assay: HCV replicon luciferase reporter assay, genotype 1b; assay type: cell-based; conditions: Hepatitis C virus, Huh-7, 72 h, HCV genotype 1b replicon luciferase, 3 days incubation
Outline: as §1

SMILES	EC50 ([1]; read-out: LE_1a (EC50)) [nM]	EC50 ([1]; read-out: LE_1a (EC50, range)) [nM]	EC50 ([2]; read-out: LE_1b (EC50)) [nM]	EC50 ([2]; read-out: LE_1b (EC50, range)) [nM]	EC50 ([1]; GETYPE1A, read-out: LE_1a (EC50, range)) [nM]	EC50 ([2]; GETYPE1B, read-out: LE_1b (EC50, range)) [nM]
C[C@H]1CC/C=C\[C@@H]2C[C@@]2(C(=O)NS(=O)(=O)C2(C)CC2)NC(=O)[C@@H]2C[C@@H](Oc3nccc4c5c(ccc34)OCCO5)CN2C(=O)[C@@H](NC(=O)O[C@H](C)C(F)(F)F)[C@H](C)C1 [Compound 5252, (R)-1,1,1-trifluoropropan-2-yl ((2R,6S,7R,9S,13aS,14aR,16aS,Z)-2-((2,3-dihydro-[1,4]dioxino[2,3-f]isoquinolin-7-yl)oxy)-7,9-dimethyl-14a-(((1-methylcyclopropyl)sulfonyl)carbamoyl)-5,16-dioxo-1,2,3,5,6,7,8,9,10,11,13a,14,14a,15,16,16a-hexadecahydrocyclopropa[e]pyrrolo[1,2-a][1,4]diazacyclopentadecin-6-yl)carbamate]	15.1	4.82 to 103	4.04	< 5.46	–	–
C[C@@H]1CC/C=C\[C@@H]2C[C@@]2(C(=O)NS(=O)(=O)C2(C)CC2)NC(=O)[C@@H]2C[C@@H](Oc3nccc4c5c(ccc34)OCCO5)CN2C(=O)[C@@H](NC(=O)O[C@H](C)C(F)(F)F)[C@H](C)C1 [Compound 5253, (R)-1,1,1-trifluoropropan-2-yl ((2R,6S,7R,9R,13aS,14aR,16aS,Z)-2-((2,3-dihydro-[1,4]dioxino[2,3-f]isoquinolin-7-yl)oxy)-7,9-dimethyl-14a-(((1-methylcyclopropyl)sulfonyl)carbamoyl)-5,16-dioxo-1,2,3,5,6,7,8,9,10,11,13a,14,14a,15,16,16a-hexadecahydrocyclopropa[e]pyrrolo[1,2-a][1,4]diazacyclopentadecin-6-yl)carbamate]	–	< 5.46	–	< 5.46	–	–
C[C@H]1CC/C=C\[C@@H]2C[C@@]2(C(=O)NS(=O)(=O)C2CC2)NC(=O)[C@@H]2C[C@@H](Oc3nccc4c5c(ccc34)OC(F)(F)O5)CN2C(=O)[C@@H](NC(=O)OC(C)(C)C)[C@H](C)C1 [Compound 5256, tert-butyl ((2R,6S,7R,9S,13aS,14aR,16aS,Z)-14a-((cyclopropylsulfonyl)carbamoyl)-2-((2,2-difluoro-[1,3]dioxolo[4,5-f]isoquinolin-6-yl)oxy)-7,9-dimethyl-5,16-dioxo-1,2,3,5,6,7,8,9,10,11,13a,14,14a,15,16,16a-hexadecahydrocyclopropa[e]pyrrolo[1,2-a][1,4]diazacyclopentadecin-6-yl)carbamate]	20.9	4.82 to 103	12.9	4.82 to 103	–	–
C[C@@H]1CC/C=C\[C@@H]2C[C@@]2(C(=O)NS(=O)(=O)C2CC2)NC(=O)[C@@H]2C[C@@H](Oc3nccc4c5c(ccc34)OC(F)(F)O5)CN2C(=O)[C@@H](NC(=O)OC(C)(C)C)[C@H](C)C1 [Compound 5257, tert-butyl ((2R,6S,7R,9R,13aS,14aR,16aS,Z)-14a-((cyclopropylsulfonyl)carbamoyl)-2-((2,2-difluoro-[1,3]dioxolo[4,5-f]isoquinolin-6-yl)oxy)-7,9-dimethyl-5,16-dioxo-1,2,3,5,6,7,8,9,10,11,13a,14,14a,15,16,16a-hexadecahydrocyclopropa[e]pyrrolo[1,2-a][1,4]diazacyclopentadecin-6-yl)carbamate]	–	< 5.46	–	< 5.46	–	–
C[C@H]1CC/C=C\[C@@H]2C[C@@]2(C(=O)NS(=O)(=O)C2CC2)NC(=O)[C@@H]2C[C@@H](Oc3nccc4c5c(ccc34)OCCO5)CN2C(=O)[C@@H](NC(=O)OC(C)(C)C(F)(F)F)[C@H](C)C1 [Compound 5258, 1,1,1-trifluoro-2-methylpropan-2-yl((2R,6S,7R,9S,13aS,14aR,16aS,Z)-14a-((cyclopropylsulfonyl)carbamoyl)-2-((2,3-dihydro-[1,4]dioxino[2,3-f]isoquinolin-7-yl)oxy)-7,9-dimethyl-5,16-dioxo-1,2,3,5,6,7,8,9,10,11,13a,14,14a,15,16,16a-hexadecahydrocyclopropa[e]pyrrolo[1,2-a][1,4]diazacyclopentadecin-6-yl)carbamate]	–	4.82 to 103	–	< 5.46	–	–
C[C@@H]1CC/C=C\[C@@H]2C[C@@]2(C(=O)NS(=O)(=O)C2CC2)NC(=O)[C@@H]2C[C@@H](Oc3nccc4c5c(ccc34)OCCO5)CN2C(=O)[C@@H](NC(=O)OC(C)(C)C(F)(F)F)[C@H](C)C1 [Compound 5259, 1,1,1-trifluoro-2-methylpropan-2-yl((2R,6S,7R,9R,13aS,14aR,16aS,Z)-14a-((cyclopropylsulfonyl)carbamoyl)-2-((2,3-dihydro-[1,4]dioxino[2,3-f]isoquinolin-7-yl)oxy)-7,9-dimethyl-5,16-dioxo-1,2,3,5,6,7,8,9,10,11,13a,14,14a,15,16,16a-hexadecahydrocyclopropa[e]pyrrolo[1,2-a][1,4]diazacyclopentadecin-6-yl)carbamate]	–	< 5.46	–	< 5.46	–	–
CCC(C)(OC(=O)N[C@@H]1C(=O)N2C[C@H](Oc3nccc4c5c(ccc34)OCCO5)C[C@H]2C(=O)N[C@]2(C(=O)NS(=O)(=O)C3CC3)C[C@H]2/C=C\CC[C@@H](C)C[C@H]1C)C(F)(F)F (stereo partly drawn) [Compound 5260]	–	–	–	–	< 5.46	< 5.46
CCC(CC)(OC(=O)N[C@@H]1C(=O)N2C[C@H](Oc3nccc4c5c(ccc34)OCCO5)C[C@H]2C(=O)N[C@]2(C(=O)NS(=O)(=O)C3CC3)C[C@H]2/C=C\CC[C@H](C)C[C@H]1C)C(F)(F)F [Compound 5261, 3-(trifluoromethyl)pentan-3-yl ((2R,6S,7R,9S,13aS,14aR,16aS,Z)-14a-((cyclopropylsulfonyl)carbamoyl)-2-((2,3-dihydro-[1,4]dioxino[2,3-f]isoquinolin-7-yl)oxy)-7,9-dimethyl-5,16-dioxo-1,2,3,5,6,7,8,9,10,11,13a,14,14a,15,16,16a-hexadecahydrocyclopropa[e]pyrrolo[1,2-a][1,4]diazacyclopentadecin-6-yl)carbamate]	14.3	4.82 to 103	2.18	< 5.46	–	–
CCC(CC)(OC(=O)N[C@@H]1C(=O)N2C[C@H](Oc3nccc4c5c(ccc34)OCCO5)C[C@H]2C(=O)N[C@]2(C(=O)NS(=O)(=O)C3CC3)C[C@H]2/C=C\CC[C@@H](C)C[C@H]1C)C(F)(F)F [Compound 5262, 3-(trifluoromethyl)pentan-3-yl ((2R,6S,7R,9R,13aS,14aR,16aS,Z)-14a-((cyclopropylsulfonyl)carbamoyl)-2-((2,3-dihydro-[1,4]dioxino[2,3-f]isoquinolin-7-yl)oxy)-7,9-dimethyl-5,16-dioxo-1,2,3,5,6,7,8,9,10,11,13a,14,14a,15,16,16a-hexadecahydrocyclopropa[e]pyrrolo[1,2-a][1,4]diazacyclopentadecin-6-yl)carbamate]	–	< 5.46	–	< 5.46	–	–
C[C@H]1CC/C=C\[C@@H]2C[C@@]2(C(=O)NS(=O)(=O)C2CC2)NC(=O)[C@@H]2C[C@@H](Oc3nccc4c5c(ccc34)OCCO5)CN2C(=O)[C@@H](NC(=O)O[C@@H]2C[C@@H]3C[C@@H]3C2)[C@H](C)C1 [Compound 5263, (1R,3r,5S)-bicyclo[3.1.0]hexan-3-yl((2R,6S,7R,9S,13aS,14aR,16aS,Z)-14a-((cyclopropylsulfonyl)carbamoyl)-2-((2,3-dihydro-[1,4]dioxino[2,3-f]isoquinolin-7-yl)oxy)-7,9-dimethyl-5,16-dioxo-1,2,3,5,6,7,8,9,10,11,13a,14,14a,15,16,16a-hexadecahydrocyclopropa[e]pyrrolo[1,2-a][1,4]diazacyclopentadecin-6-yl)carbamate]	–	4.82 to 103	–	< 5.46	–	–
C[C@@H]1CC/C=C\[C@@H]2C[C@@]2(C(=O)NS(=O)(=O)C2CC2)NC(=O)[C@@H]2C[C@@H](Oc3nccc4c5c(ccc34)OCCO5)CN2C(=O)[C@@H](NC(=O)O[C@@H]2C[C@@H]3C[C@@H]3C2)[C@H](C)C1 [Compound 5264, (1R,3r,5S)-bicyclo[3.1.0]hexan-3-yl((2R,6S,7R,9R,13aS,14aR,16aS,Z)-14a-((cyclopropylsulfonyl)carbamoyl)-2-((2,3-dihydro-[1,4]dioxino[2,3-f]isoquinolin-7-yl)oxy)-7,9-dimethyl-5,16-dioxo-1,2,3,5,6,7,8,9,10,11,13a,14,14a,15,16,16a-hexadecahydrocyclopropa[e]pyrrolo[1,2-a][1,4]diazacyclopentadecin-6-yl)carbamate]	–	< 5.46	–	< 5.46	–	–
CCC(C)(CC)OC(=O)N[C@@H]1C(=O)N2C[C@H](Oc3nccc4c5c(ccc34)OCCO5)C[C@H]2C(=O)N[C@]2(C(=O)NS(=O)(=O)C3CC3)C[C@H]2/C=C\CC[C@H](C)C[C@H]1C [Compound 5265, 3-methylpentan-3-yl((2R,6S,7R,9S,13aS,14aR,16aS,Z)-14a-((cyclopropylsulfonyl)carbamoyl)-2-((2,3-dihydro-[1,4]dioxino[2,3-f]isoquinolin-7-yl)oxy)-7,9-dimethyl-5,16-dioxo-1,2,3,5,6,7,8,9,10,11,13a,14,14a,15,16,16a-hexadecahydrocyclopropa[e]pyrrolo[1,2-a][1,4]diazacyclopentadecin-6-yl)carbamate]	–	4.82 to 103	–	< 5.46	–	–
